The term IC50 denotes the concentration at which inhibition is half-maximal. Read a low IC50 as inhibition by little substance. By melting point is commonly meant the temperature of the solid-liquid transition.

Data on 13 compounds can be found in article PMC6630796, “Spiroindolone Analogues as Potential Hypoglycemic with Dual Inhibitory Activity on α-Amylase and α-Glucosidase” (Molecules, 2019).

Data set [1] deals with T1, α-Glucosidase type 1 from baker’s yeast (Saccharomyces cerevisiae, UniProt P53341).
T1 construct: purchased Sigma-Aldrich G5003
T1 sequence (P53341 whole entry): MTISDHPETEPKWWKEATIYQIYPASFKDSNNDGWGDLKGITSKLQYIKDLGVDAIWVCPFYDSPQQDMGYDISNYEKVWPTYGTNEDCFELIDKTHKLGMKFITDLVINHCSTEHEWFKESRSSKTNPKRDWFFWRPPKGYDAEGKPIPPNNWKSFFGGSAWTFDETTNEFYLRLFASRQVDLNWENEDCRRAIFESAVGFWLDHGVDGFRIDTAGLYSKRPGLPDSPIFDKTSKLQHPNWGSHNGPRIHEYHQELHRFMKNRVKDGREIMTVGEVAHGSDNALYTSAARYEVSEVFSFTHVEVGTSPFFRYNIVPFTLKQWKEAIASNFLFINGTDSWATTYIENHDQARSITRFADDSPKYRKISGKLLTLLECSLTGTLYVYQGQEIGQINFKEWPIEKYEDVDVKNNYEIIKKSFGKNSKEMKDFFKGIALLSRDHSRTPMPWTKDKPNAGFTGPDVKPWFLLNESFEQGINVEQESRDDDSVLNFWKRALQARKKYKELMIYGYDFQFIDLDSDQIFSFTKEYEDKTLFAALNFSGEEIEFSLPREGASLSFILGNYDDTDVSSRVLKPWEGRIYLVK
In words: α-Glucosidase inhibition assay (p-nitrophenyl α-D-glucopyranoside, 405 nm). The data set is classed as biochemical. Conditions: for α-Glucosidase Selectivity: IC50 (α-amylase)/IC50 (α-glucosidase). How it is done: Sodium phosphate buffer (0.1 M) was adjusted by 0.1 N HCl to pH 7.0 with a pH meter (Thermo Fisher Scientific Inc., Waltham, MA, USA). p-Nitrophenyl α-D-glucopyranoside (10 mM) and α-glucosidase solutions (1 U/mL) were solubilized in 0.1 M sodium phosphate buffer (pH 7.0). All the reagents were manufactured shortly before use and warmed to 37 °C in a water bath. Sodium phosphate buffer (0.1 M, 158 μL per well) was added to a 96-well plate. α-Glucosidase (20 μL) and 2 μL of sample were added to 20 μL of p-nitrophenyl α-D-glucopyranoside. In the 200-μL final reaction volume (0.02 U/well, 0.1 U/mL) the substrate concentration was adjusted to […]. The background signal due to the sample color was measured at 405 nm with the PerkinElmer Wallac Victor3 spectrophotometer (PerkinElmer, Waltham, MA, USA) prior to adding the enzyme. Immediately following α-glucosidase addition, absorbance was measured at 405 nm 8 times at 1 min intervals.
(§1) The inhibitory concentration 50% (IC50) values were determined from the plots of percent inhibition versus log inhibitor concentration and calculated by logarithmic regression analysis from the mean inhibitory values.

The target of data set [2] is T2, α-amylase from Aspergillus oryzae (Aspergillus oryzae, UniProt P0C1B3).
T2 construct: purchased Sigma Aldrich
In words: biochemical. Conditions: for α-Amylase Selectivity: IC50 (α-glucosidase)/IC50 (α-amylase). How it is done: Briefly, 250 μL (0.4 mg/mL) of sample was preincubated with 250 μL of α-amylase solution for 10 min at 25 °C in one set of tubes. In another set of tubes α-amylase was preincubated with 250 μL of phosphate buffer (pH 6.9). 250 μL of starch solution at increasing concentrations (0.2–1% (w/v)) was added to both sets of reaction mixtures to start the reaction. The mixture was then incubated for 10 min at 25 °C and then boiled for 15 min after the addition of 250 μL of DNS to stop the reaction. The amount of reducing sugars released was determined spectrophotometrically using a maltose standard curve and converted to reaction velocities.
as §1

Each structure is given as a SMILES string.

As for `O=C(c1ccccc1)C1C(c2cc3ccccc3o2)C2CSCN2[C@@]12C(=O)Nc1ccc(Cl)cc12` (stereo partly drawn) [Compound 5a, (3S)-7′-(Benzofuran-2-yl)-6′-benzoyl-5-chloro-1′,6′,7′,7a′-tetrahydro-3′H-spiro[indoline-3,5′-pyrrolo[1,2-c]thiazol]-2-one], the melting point lay within 132 to 133 °C. Moreover, in data set [1], the midpoint of inhibition, the IC50, lay at 465.12 ± 0.12 µM and the “α-Glucosidase Selectivity” value was determined as 1.49. Further, in data set [2], 693.22 ± 0.1 µM corresponded to half-maximal inhibition (IC50) and the “α-Amylase Selectivity” value is given as 0.67.
Regarding `O=C(c1ccccc1)C1C(c2cc3ccccc3o2)C2C3CCCCC3CN2[C@@]12C(=O)Nc1ccc(Cl)cc12` (stereo partly drawn) [Compound 5b, (3S)-1′-(Benzofuran-2-yl)-2′-benzoyl-5-chloro-1′,2′,5′,5a′,6′,7′,8′,9′,9a′,9b′-decahydrospiro[indoline-3,3′-pyrrolo[2,1-a]isoindol]-2-one], the melting point lay in the range of 120 to 122 °C.
In turn, `O=C(c1ccc(F)cc1)C1C(c2cc3ccccc3o2)C2CSCN2[C@@]12C(=O)Nc1ccc(Cl)cc12` (stereo partly drawn) [Compound 5c, (3S)-7′-(Benzofuran-2-yl)-5-chloro-6′-(4-fluorobenzoyl)-1′,6′,7′,7a′-tetrahydro-3′H-spiro[indoline-3,5′-pyrrolo[1,2-c]thiazol]-2-one] showed a melting point of 110 to 112 °C. In addition, in data set [1], 585.11 ± 0.02 µM corresponded to half-maximal inhibition (IC50) and the “α-Glucosidase Selectivity” value turned out to be 1.22. Also, in data set [2], the IC50 came out at 718 ± 0.27 µM and the “α-Amylase Selectivity” value is 0.81.
`O=C(c1ccc(F)cc1)C1C(c2cc3ccccc3o2)C2C3CCCCC3CN2[C@@]12C(=O)Nc1ccc(Cl)cc12` (stereo partly drawn) [Compound 5d, (3S)-1′-(benzofuran-2-yl)-5-chloro-2′-(4-fluorobenzoyl)-1′,2′,5′,5a′,6′,7′,8′,9′,9a′,9b′-decahydrospiro-[indoline-3,3′-pyrrolo[2,1-a]isoindol]-2-one]: the melting point lay in the range of 125 to 127 °C.
Compound `O=C(c1ccc(F)cc1)C1C(c2cc3ccccc3o2)C2C3CCCCC3CN2[C@@]12C(=O)Nc1ccc(Br)cc12` (stereo partly drawn) [Compound 5e, (3S)-1′-(Benzofuran-2-yl)-5-bromo-2′-(4-fluorobenzoyl)-1′,2′,5′,5a′,6′,7′,8′,9′,9a′,9b′-decahydrospiro-[indoline-3,3′-pyrrolo[2,1-a]isoindol]-2-one] came in with a melting point of 125 to 127 °C.
In turn, `O=C(c1ccc(Br)cc1)C1C(c2cc3ccccc3o2)C2C3CCCCC3CN2[C@@]12C(=O)Nc1ccc(Cl)cc12` (stereo partly drawn) [Compound 5f, (3S)-1′-(Benzofuran-2-yl)-2′-(4-bromobenzoyl)-5-chloro-1′,2′,5′,5a′,6′,7′,8′,9′,9a′,9b′-decahydrospiro-[indoline-3,3′-pyrrolo[2,1-a]isoindol]-2-one] yielded a melting point of 120 to 121 °C.
`O=C(c1ccc(Br)cc1)C1C(c2cc3ccccc3o2)C2CSCN2[C@@]12C(=O)Nc1ccc(Br)cc12` (stereo partly drawn) [Compound 5h, (3S)-7′-(Benzofuran-2-yl)-5-bromo-6′-(4-bromobenzoyl)-1′,6′,7′,7a′-tetrahydro-3′H-spiro[indoline-3,5′-pyrrolo[1,2-c]thiazol]-2-one] displayed a melting point of 118 to 120 °C. Moreover, in data set [1], the IC50 turned out to be 494.1 ± 0.04 µM and the “α-Glucosidase Selectivity” value stood at 1.19. Besides, in data set [2], the IC50 was determined as 589.04 ± 0.25 µM and the “α-Amylase Selectivity” value worked out at 0.83.
In turn, `O=C(c1ccc(Br)cc1)C1C(c2cc3ccccc3o2)C2CSCN2[C@@]12C(=O)Nc1ccc(Cl)cc12` (stereo partly drawn) [Compound 5i, (3S)-7′-(Benzofuran-2-yl)-6′-(4-bromobenzoyl)-5-chloro-1′,6′,7′,7a′-tetrahydro-3′H-spiro[indoline-3,5′-pyrrolo[1,2-c]thiazol]-2-one] displayed a melting point of 144 to 145 °C. In data set [1], the 50% inhibitory concentration (IC50) is 684.12 ± 0.35 µM and the “α-Glucosidase Selectivity” value is 1.13. Also, in data set [2], the IC50 worked out at 779.08 ± 0.51 µM and the “α-Amylase Selectivity” value is on record as 0.87.
`O=C(c1ccc(C(F)(F)F)cc1)C1C(c2cc3ccccc3o2)C2CSCN2[C@@]12C(=O)Nc1ccc(Cl)cc12` (stereo partly drawn) [Compound 5l, (3S)-7′-(Benzofuran-2-yl)-5-chloro-6′-(4-(trifluoromethyl)benzoyl)-1′,6′,7′,7a′-tetrahydro-3′H-spiro-[indoline-3,5′-pyrrolo[1,2-c]thiazol]-2-one] came in with a melting point of 110 to 112 °C. This compound returned an IC50 in data set [1] of 414.1 ± 0.52 µM. Besides, in data set [2], the IC50 is 558.07 ± 0.18 µM and the “α-Amylase Selectivity” value came to 0.74.
Compound `O=C(c1ccc(F)cc1)C1C(c2cc3ccccc3o2)C2C3CCCCC3CN2[C@@]12C(=O)Nc1ccccc12` (stereo partly drawn) [Compound 5m, (3S)-1′-(Benzofuran-2-yl)-2′-(4-fluorobenzoyl)-1′,2′,5′,5a′,6′,7′,8′,9′,9a′,9b′-decahydrospiro[indoline-3,3′-pyrrolo[2,1-a]isoindol]-2-one] gave a melting point of 137 to 138 °C.
The same measure, in the same setting: the value for `O=C(c1ccc(Br)cc1)C1C(c2cc3ccccc3o2)C2C3CCCCC3CN2[C@@]12C(=O)Nc1ccccc12` (stereo partly drawn) [Compound 5n, (3S)-1′-(Benzofuran-2-yl)-2′-(4-bromobenzoyl)-1′,2′,5′,5a′,6′,7′,8′,9′,9a′,9b′-decahydrospiro[indoline-3,3′-pyrrolo[2,1-a]isoindol]-2-one] was 118 to 120 °C; that for `O=C(c1ccc(Cl)cc1)C1C(c2cc3ccccc3o2)C2C3CCCCC3CN2[C@@]12C(=O)Nc1ccc(Cl)cc12` (stereo partly drawn) [Compound 5o, (3S)-1′-(Benzofuran-2-yl)-5-chloro-2′-(4-chlorobenzoyl)-1′,2′,5′,5a′,6′,7′,8′,9′,9a′,9b′-decahydrospiro-[indoline-3,3′-pyrrolo[2,1-a]isoindol]-2-one] was 125 to 126 °C.
The compound `O=C(c1ccc(Cl)cc1)C1C(c2cc3ccccc3o2)C2CSCN2[C@@]12C(=O)Nc1ccc(Cl)cc12` (stereo partly drawn) [Compound 5p, (3S)-7′-(Benzofuran-2-yl)-5-chloro-6′-(4-chlorobenzoyl)-1′,6′,7′,7a′-tetrahydro-3′H-spiro[indoline-3,5′-pyrrolo[1,2-c]thiazol]-2-one] came in with a melting point of 105 to 106 °C. For the same compound, in data set [1], 392.1 ± 1.07 µM corresponded to half-maximal inhibition (IC50) and the “α-Glucosidase Selectivity” value is reported as 1.24. In data set [2], 488 ± 1.11 µM corresponded to half-maximal inhibition (IC50) and the “α-Amylase Selectivity” value was 0.80.
